Data taken from patent publication US20090226500A1, “SUTURES AND ANTI-SCARRING AGENTS” (Angiotech Pharmaceuticals, Inc, priority 2006, published 2009).

Experiments:
S. aureus ATCC25923 C622 = assay: MIC microtitre broth dilution, S. aureus; type: cell-based; settings: S. aureus ATCC25923 C622 wt Gram+, 24 h
Procedure: (§1) MIC assays were conducted essentially as described by Amsterdam, D 1996, “Susceptibility testing of antimicrobials in liquid media”, p. 52-111, in Loman, V, ed. Antibiotics in laboratory medicine, 4th ed Williams and Wilkins, Baltimore, Md.

S. pyogenes C721 = assay: MIC microtitre broth dilution, S. pyogenes; type: cell-based; settings: S. pyogenes C721 wt Gram+, Todd Hewitt broth
Procedure: as §1

[1] = system: P. aeruginosa PAE/K799 H187; assay: MIC microtitre broth dilution, P. aeruginosa; type: cell-based; settings: P. aeruginosa PAE/K799 H187 wt Gram−, 24 h
Procedure: as §1

[2] = system: K. pneumoniae ATCC13883 C238; assay: MIC microtitre broth dilution, K. pneumoniae; type: cell-based; settings: K. pneumoniae ATCC13883 C238 wt Gram−, 24 h
Procedure: as §1

E. coli UB1005 C498 = assay: MIC microtitre broth dilution, E. coli; type: cell-based; settings: E. coli UB1005 C498 wt Gram−, 24 h
Procedure: as §1

S. epidermidis C621 = assay: MIC microtitre broth dilution, S. epidermidis; type: cell-based; settings: S. epidermidis C621 wt Gram+, 24 h
Procedure: as §1

[3] = system: nitric oxide production by macrophages (murine macrophage cell line RAW 264.7); assay: Nitric oxide production by macrophages; type: cell-based
[4] = system: MCP-1 production by THP-1 cells; assay: MCP-1 production by macrophages; type: cell-based, human; settings: THP-1 cells stimulated with opsonized zymosan, 24 hours; read-out: IC50 MCP-1 production
Procedure: (§2) The human macrophage cell line, THP-1 was plated in a 12 well plate such that each well contains 1×10^6 cells in 2 ml of media containing 10% FCS. Opsonized zymosan was prepared by resuspending 20 mg of zymosan A in 2 ml of ddH2O and homogenizing until a uniform suspension was obtained. Homogenized zymosan was pelleted at 250 g and resuspended in 4 ml of human serum for a final concentration of 5 mg/ml and incubated in a 37° C. water bath for 20 minutes to enable opsonization. Geldanamycin was prepared in DMSO at a concentration of 10^−2 M and serially diluted 10-fold to give a range of stock concentrations (10^−8 M to 10^−2 M).
THP-1 cells were stimulated to produce MCP-1 by the addition of 1 mg/ml opsonized zymosan. […] was added to THP-1 cells by directly adding DMSO stock solutions, prepared earlier, at a 1/1000 dilution, to each well. Each drug concentration was tested in triplicate wells. Plates were incubated at 37° C. for 24 hours.
After a 24-hour stimulation, supernatants were collected to quantify MCP-1 production. MCP-1 concentrations in the supernatants were determined by ELISA using recombinant human MCP-1 to obtain a standard curve. A 96-well MaxiSorb plate was coated with 100 μL of anti-human MCP-1 Capture Antibody diluted in Coating Buffer (0.1M sodium carbonate pH 9.5) overnight at 4° C. The dilution of Capture Antibody used was lot-specific and was determined empirically. Capture antibody was then aspirated and the plate washed 3 times with Wash Buffer (PBS, 0.05% TWEEN-20). Plates were blocked for 1 hour at room temperature with 200 μL/well of Assay Diluent (PBS, 10% FCS pH 7.0). After blocking, plates were washed 3 times with Wash Buffer. […] Sample supernatants and standards were assayed in triplicate and were incubated at room temperature for 2 hours after addition to the plate coated with Capture Antibody. The plates were washed 5 times and incubated with 100 μL of Working Detector (biotinylated anti-human MCP-1 detection antibody+avidin-HRP) for 1 hour at room temperature. Following this incubation, the plates were washed 7 times and 100 μL of Substrate Solution (tetramethylbenzidine, H2O2) was added to plates and incubated for 30 minutes at room temperature. […] Mean absorbance was determined from triplicate data readings and the mean background was subtracted. MCP-1 concentration values were obtained from the standard curve.

[5] = system: TNFα production by THP-1 cells; assay: TNF-alpha production by macrophages; type: cell-based, human; settings: THP-1 cells stimulated with opsonized zymosan, 24 hours; read-out: IC50 TNFα production
Procedure: as §2, with “12-well” for “12 well”, “opsonization.” for “opsonization. Geldanamycin was prepared in DMSO at a concentration of 10^−2 M and serially diluted 10-fold to give a range of stock concentrations (10^−8 M to 10^−2 M).”
THP-1 cells were stimulated to produce TNFα by the addition of 1 mg/ml opsonized zymosan. […] Each drug concentration was tested in triplicate wells. Plates were incubated at 37° C. for 24 hours.
After a 24-hour stimulation, supernatants were collected to quantify TNFα production. TNFα concentrations in the supernatants were determined by ELISA using recombinant human TNFα to obtain a standard curve A 96-well MaxiSorb plate was coated with 100 μL of anti-human TNFα Capture Antibody diluted in Coating Buffer (0.1M sodium carbonate pH 9 5) overnight at 4° C. The dilution of Capture Antibody used was lot-specific and was determined empirically. Capture antibody was then aspirated and the plate washed 3 times with Wash Buffer (PBS, 0.05% TWEEN-20) Plates were blocked for 1 hour at room temperature with 200 μL/well of Assay Diluent (PBS, 10% FCS pH 7.0). After blocking, plates were washed 3 times with Wash Buffer. […] Sample supernatants and standards were assayed in triplicate and were incubated at room temperature for 2 hours after addition to the plate coated with Capture Antibody. The plates were washed 5 times and incubated with 100 μL of Working Detector (biotinylated anti-human TNFα detection antibody+avidin-HRP) for 1 hour at room temperature. Following this incubation, the plates were washed 7 times and 100 μL of Substrate Solution (tetramethylbenzidine, H2O2) was added to plates and incubated for 30 minutes at room temperature. […] Mean absorbance was determined from triplicate data readings and the mean background was subtracted. TNFα concentration values were obtained from the standard curve.

Smooth muscle cells = assay: Proliferation of smooth muscle cells; type: cell-based; settings: 72 hours, CYQUANT; read-out: IC50 proliferation of smooth muscle cells
Outline: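 Smooth muscle cells at 600 cells/well, exposed to paclitaxel (DMSO stocks 10^−8 to 10^−2 M) in triplicate for 72 h at 37 °C. Proliferation read with CyQUANT GR dye in lysis buffer.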

Row | SMILES | Minimum inhibitory concentration (S. aureus ATCC25923 C622) | Minimum inhibitory concentration (S. pyogenes C721) | Minimum inhibitory concentration [1] | Minimum inhibitory concentration [2] | Minimum inhibitory concentration (E. coli UB1005 C498) | Minimum inhibitory concentration (S. epidermidis C621) | IC50 [3] | IC50 [4] | IC50 [5] | IC50 (Smooth muscle cells)
1 | O=c1[nH]cc(F)c(=O)[nH]1 [5-fluorouracil] | 10^−7 Molar | 10^−4 Molar | 10^−5 Molar | 10^−6 Molar | 10^−6 Molar | 10^−7 Molar | – | – | – | –
2 | C/C(=N\N=C(N)N)c1cc(NC(=O)CCCCCCCCC(=O)Nc2cc(/C(C)=N/N=C(N)N)cc(/C(C)=N/N=C(N)N)c2)cc(/C(C)=N/N=C(N)N)c1 [CNI-1493] | – | – | – | – | – | – | 249 nM | 0.02 nM | 0.15 nM | –
3 | CC[C@@]1(O)C(=O)OCc2c1cc1n(c2=O)Cc2cc3ccccc3nc2-1 [camptothecin] | N | N | N | N | N | 10^−4 Molar | – | – | – | –
4 | N.N.[Cl][Pt][Cl] [cisplatin] | N | N | 10^−4 Molar | N | N | N | – | – | – | –
5 | Nc1ccn([C@@H]2O[C@H](CO)[C@@H](O)[C@@H]2O)c(=O)n1 [cytarabine] | N | N | N | N | N | N | – | – | – | 85 nM
6 | COc1cccc2c1C(=O)c1c(O)c3c(c(O)c1C2=O)C[C@@](O)(C(=O)CO)C[C@@H]3O[C@H]1C[C@H](N)[C@H](O)[C@H](C)O1 [doxorubicin] | 10^−5 Molar | 10^−7 Molar | 10^−5 Molar | 10^−6 Molar | 10^−4 Molar | 10^−6 Molar | – | – | – | 64 nM
7 | COc1cc([C@@H]2c3cc4c(cc3[C@@H](O[C@@H]3O[C@@H]5CO[C@@H](C)O[C@H]5[C@H](O)[C@H]3O)[C@H]3COC(=O)[C@H]23)OCO4)cc(OC)c1O [etoposide] | 10^−5 Molar | 10^−5 Molar | N | 10^−5 Molar | N | 10^−6 Molar | – | – | – | 320 nM
8 | NC(=O)NO [hydroxyurea] | N | 10^−4 Molar | 10^−4 Molar | N | N | N | – | – | – | –
9 | CN(Cc1cnc2nc(N)nc(N)c2n1)c1ccc(C(=O)N[C@@H](CCC(=O)O)C(=O)O)cc1 [methotrexate] | 10^−5 Molar | 10^−6 Molar | N | 10^−6 Molar | N | N | – | – | – | –
10 | Nc1ncnc2c1ccn2[C@@H]1O[C@H](CO)[C@@H](O)[C@H]1O [tubercidin] | N | N | N | N | N | N | – | 56 nM | – | 30 nM
